Results taken from patent publication US6376497B1, “Antifungal azole derivatives having a fluorinated vinyl group and process for preparing same” (Korea Research Institute of Chemical Technology, priority 1999, dated 2002).

Columns and labels:
Assay in all cases: In vitro antifungal activity, microbroth dilution MIC
Assay type in all cases: cell-based
[1] = tested on: Torulopsis glabrata B. 16205; conditions: RPMI-1640, 35° C., 4 to 48 hours, no growth observed
Method in brief: (§1)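 Broth microdilution adapted from NCCLS M27, in RPMI-1640 with 0.165 M MOPS, pH 7.0. Yeast or mould inoculum at 2×10^3 CFU/ml was mixed 1:1 with DMSO-derived compound solutions (200 to 0.10 μg/ml before mixing) and incubated at 35 °C for 4 to 48 h. MIC was the concentration showing no growth.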

[2] = tested on: Cryptococcus neoformans IFM. 40092; conditions: RPMI-1640, 35° C., 4 to 48 hours, no growth observed
Method in brief: as §1

[3] = tested on: Trichophyton mentagrophytes B. 32663; conditions: RPMI-1640, 35° C., 4 to 48 hours, no growth observed
Method in brief: as §1

[4] = tested on: Candida albicans IFO. 1385; conditions: RPMI-1640, 35° C., 4 to 48 hours, no growth observed
Method in brief: as §1

[5] = tested on: Candida albicans A. 10231; conditions: 4 to 48 hours; for Minimal inhibitory concentration (MIC): C. albicans A. 10231, RPMI-1640, 35° C.; for Minimal inhibitory concentration(MIC), C. albicans A. 10231: RPMI-1640, 35° C., no growth observed
Method in brief: as §1

[6] = tested on: Cryptococcus neoformans A. 34144; conditions: RPMI-1640, 35° C., 4 to 48 hours, no growth observed
Method in brief: as §1

[7] = tested on: Cryptococcus neoformans B. 42419; conditions: RPMI-1640, 35° C., 4 to 48 hours, no growth observed
Method in brief: as §1

Candida krusei K. 11655 = conditions: RPMI-1640, 35° C., 4 to 48 hours, no growth observed
Method in brief: as §1

[8] = tested on: Candida parapsitosis A. 7330; conditions: RPMI-1640, 35° C., 4 to 48 hours, no growth observed
Method in brief: as §1

[9] = tested on: Aspergillus furnigatus B. 19119; conditions: RPMI-1640, 35° C., 4 to 48 hours, no growth observed
Method in brief: as §1

[10] = tested on: Candida pseudotropicalis K. 11658; conditions: RPMI-1640, 35° C., 4 to 48 hours, no growth observed
Method in brief: as §1

Candida albicans C1-2 = conditions: 4 to 48 hours; for Minimal inhibitory concentration (MIC): C. albicans C1-2, RPMI-1640, 35° C.; for Minimal inhibitory concentration(MIC), C. albicans C1-2: RPMI-1640, 35° C., no growth observed
Method in brief: as §1

[11] = tested on: Candida tropicalis A. 13803; conditions: RPMI-1640, 35° C., 4 to 48 hours, no growth observed
Method in brief: as §1

[12] = tested on: Aspergillus niger A. 16404; conditions: RPMI-1640, 35° C., 4 to 48 hours, no growth observed
Method in brief: as §1

[13] = tested on: Trichophyton mentagrophytes A. 9129; conditions: RPMI-1640, 35° C., 4 to 48 hours, no growth observed
Method in brief: as §1

Compound	Minimal inhibitory concentration(MIC), T. glabrata B. 16205 [1] [µg/mL]	Minimal inhibitory concentration(MIC), Cry. neoformans IFM. 40092 [2] [µg/mL]	Minimal inhibitory concentration(MIC), T. mentagrophytes B. 32663 [3] [µg/mL]	Minimal inhibitory concentration(MIC), C. albicans IFO. 1385 [4] [µg/mL]	Minimal inhibitory concentration (MIC) [5] [µg/mL]	Minimal inhibitory concentration(MIC), Cry. neoformans A. 34144 [6] [µg/mL]	Minimal inhibitory concentration(MIC), Cry. neoformans B. 42419 [7] [µg/mL]	Minimal inhibitory concentration(MIC), C. krusei K. 11655 (Candida krusei K. 11655) [µg/mL]	Minimal inhibitory concentration(MIC), C. parapsitosis A. 7330 [8] [µg/mL]	Minimal inhibitory concentration(MIC), A furnigatus B. 19119 [9] [µg/mL]	Minimal inhibitory concentration(MIC), C. pseudotropicalis K. 11658 [10] [µg/mL]	Minimal inhibitory concentration (MIC) (Candida albicans C1-2) [µg/mL]	Minimal inhibitory concentration(MIC), C. tropicalis A. 13803 [11] [µg/mL]	Minimal inhibitory concentration(MIC), A. niger A. 16404 [12] [µg/mL]	Minimal inhibitory concentration(MIC), T. mentagrophytes A. 9129 [13] [µg/mL]	Minimal inhibitory concentration(MIC), C. albicans A. 10231 [5] [µg/mL]	Minimal inhibitory concentration(MIC), C. albicans C1-2 (Candida albicans C1-2) [µg/mL]
FC(OCC1COC(Cn2cncn2)(c2ccc(Cl)cc2Cl)O1)=C(c1ccccc1)C(F)(F)F (mixture of isomers) [Ex. 79]	>100	1.56	>100	>100	>100	>100	>100	>100	>100	>100	>100	>100	>100	>100	>100	–	–
Cc1cccc(C(=C(F)OCC2COC(Cn3cncn3)(c3ccc(Cl)cc3Cl)O2)C(F)(F)F)c1 (mixture of isomers) [Ex. 80]	>100	0.78	100	12.5	>100	1.56	1.56	>100	>100	>100	>100	>100	>100	>100	100	–	–
Cc1ccc(C(=C(F)OCC2COC(Cn3cncn3)(c3ccc(Cl)cc3Cl)O2)C(F)(F)F)cc1 (mixture of isomers) [Ex. 81]	>100	0.39	100	12.5	–	0.78	1.56	>100	>100	>100	50.0	–	>100	>100	100	>100	>100
Cc1ccc(C(=C(F)OCC2COC(Cn3cncn3)(c3ccc(Cl)cc3Cl)O2)C(F)(F)F)cc1C (mixture of isomers) [Ex. 82]	>100	0.39	>100	12.5	–	3.13	3.13	>100	>100	>100	>100	–	>100	>100	>100	>100	>100
Cc1cc(C)cc(C(=C(F)OCC2COC(Cn3cncn3)(c3ccc(Cl)cc3Cl)O2)C(F)(F)F)c1 (mixture of isomers) [Ex. 83]	>100	1.56	>100	>100	–	>100	>100	>100	>100	>100	>100	–	>100	>100	>100	>100	>100
COc1ccc(C(=C(F)OCC2COC(Cn3cncn3)(c3ccc(Cl)cc3Cl)O2)C(F)(F)F)cc1 (mixture of isomers) [Ex. 84]	>100	0.78	>100	6.25	–	1.56	1.56	>100	>100	>100	>100	–	>100	>100	>100	>100	100
CCOc1ccc(C(=C(F)OCC2COC(Cn3cncn3)(c3ccc(Cl)cc3Cl)O2)C(F)(F)F)cc1 (mixture of isomers) [Ex. 85]	>100	0.39	>100	25.0	–	1.56	1.56	>100	>100	>100	>100	–	>100	>100	>100	100	100
